For one experiment, the system named is RENCA cells. Description: RENCA re-challenge study. Type of experiment: in vivo, Balb/c mice. The procedure:
Additional studies were performed to test survival and tumor volume responses to a re-challenge event. In one study, mice were allocated into dosing groups when tumors reached ˜100 mm^3. During the initial dosing study, time 0 was the first day of seven days of dosing. […] Re-implantation was completed on day 39 after dosing completion. Treated mice were tumor free for >20 days before being re-challenge. […] Tumor volume and survival was monitored as previously described. In the re-challenge experiment, time 0 is day 10 after re-challenge dosing.

The next experiment concerns the target T1, CCR9 (Homo sapiens, UniProt P51686).
T1 construct: expressed in transfected cells
T1 sequence (P51686 1-369): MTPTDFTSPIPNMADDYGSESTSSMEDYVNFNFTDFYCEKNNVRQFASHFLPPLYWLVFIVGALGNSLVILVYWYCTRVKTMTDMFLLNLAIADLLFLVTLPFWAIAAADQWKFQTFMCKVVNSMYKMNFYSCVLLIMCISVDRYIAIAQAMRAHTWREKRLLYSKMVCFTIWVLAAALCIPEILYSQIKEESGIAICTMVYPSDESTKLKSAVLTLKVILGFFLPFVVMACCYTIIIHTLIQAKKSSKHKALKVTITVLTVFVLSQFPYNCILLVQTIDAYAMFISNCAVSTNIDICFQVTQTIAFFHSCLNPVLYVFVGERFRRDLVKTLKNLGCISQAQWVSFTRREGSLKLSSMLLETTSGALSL
Description: gpcrMAX PathHunter β-Arrestin Assay. It is filed as cell-based. The source says: The PathHunter® β-Arrestin Assay monitored activation of a panel of 168 G-protein coupled receptors (GPCRs) with […] activation of the GPCR in agonist and antagonist mode.
where the test sample is the peptide, the vehicle control is DMSO (0% activity), and the control ligand is control compound (100% activity).
Peptides SG-3-00802 and SG-3-05021 were identified as an agonist, an antagonist, a PAM (Positive Allosteric Modulator), or an inverse-agonist. Agonist, antagonist, PAM, and inverse-agonist were identified according to the guidelines in Table 8. The basal activity/noise is a % activity of −20% to 20% for both agonist and antagonist modes. A PAM (Positive Allosteric Modulator) binds to a receptor, at a different site than the agonist, to change the receptor's response to the agonist. An inverse-Agonist is a binding partner with agonistic shutting down of basal activity in the cell. An antagonist antagonizes the activity of a particular binding partner.

For experiment [1], the target named is T2, human chemokine (C-X-C motif) receptor 3 (Homo sapiens, UniProt P49682).
T2 construct: TEV protease site; Gal4-VP16 transcription factor ('Ga14-VP16' [sic]); Tango cell line; host or cells: Tango GPCR-bla U2OS
T2 sequence (P49682 1-368): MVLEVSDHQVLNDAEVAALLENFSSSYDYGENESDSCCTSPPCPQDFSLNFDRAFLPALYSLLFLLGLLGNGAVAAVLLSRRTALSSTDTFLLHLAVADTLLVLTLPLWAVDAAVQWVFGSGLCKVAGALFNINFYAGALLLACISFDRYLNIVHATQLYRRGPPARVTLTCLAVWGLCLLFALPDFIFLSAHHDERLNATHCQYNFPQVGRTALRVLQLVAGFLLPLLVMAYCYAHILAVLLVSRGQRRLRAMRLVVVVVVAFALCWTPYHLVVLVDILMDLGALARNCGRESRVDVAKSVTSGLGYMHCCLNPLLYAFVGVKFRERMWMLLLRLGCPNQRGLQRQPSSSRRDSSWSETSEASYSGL
Description: Positive allosteric modulator assay method 1 (PAM1), Tango CXCR3-bla U2OS. Type of experiment: cell-based. The source says: To assay positive allosteric modulator activity of SG-3-00802 (SEQ ID NO: 1) and SG-3-006683 in CXCR3 cell lines, the cell line Tango™ CXCR3-bla U2OS was used in a positive allosteric modulator assay with two different methods, as described below.
Tango™ CXCR3-bla U2OS cells contain the human chemokine (C-X-C motif) receptor 3 linked to a TEV protease site and a Ga14-VP16 transcription factor stably integrated into the Tango™ GPCR-bla U2OS cell line. This parental cell line stably expresses a beta-arrestin/TEV protease fusion protein and the beta-lactamase reporter gene under the control of a UAS response element. The Tango™ CXCR3-bla U2OS cells have been functionally validated for a response to I-TAC (CXCL11).
In positive allosteric modulator assay method 1 (PAM1), cells were diluted in Assay Media to an appropriate cell density and were added to the assay plate. Peptides were added at increasing concentrations (1 nM-20 mcM) to the cells in the assay plate and incubated for 30 minutes. Ligand (CXCL9, CXCL10, or CXCL11) was added at an EC20 to all wells containing test compound. The assay plate was incubated for 16 hours at 37° C. Substrate Loading Solution was added to the assay plate and incubated for 2 hours at room temperature, in the dark. The assay plate was read on a fluorescence plate reader and the data was analyzed. PAM activity was calculated as follows:
% of PAM=((Test compound−Unstimulated)/(Stimulated−Unstimulated))×100.

Experiment [2] concerns Unstimulated human T cells. Description: Transwell T cell migration towards CXCR3 ligands. Type of experiment: cell-based. The procedure: T cell migration towards CXCR3 ligands in the presence of SG-3-00802 and SG-3-06683 was tested using a Transwell migration assay. Suboptimal concentrations of each ligand (CXCR3 ligands CXCL9, CXCL10, and CXCL11) were added to the bottom of the transwell with increasing doses of SG-3-00802 or SG-3-006683. An optimal concentration of ligand was used as positive control, as indicated in the graphs.
Unstimulated human T cells were resuspended in AIM V serum-free media, then were added to the top chamber of a […] polycarbonate Transwell insert and incubated with the indicated concentrations of the ligands and peptides in the bottom chamber for 2.5 hours at 37° C. T cells that migrated to the bottom chamber were collected, stained with anti-CD3 antibody, and counted using Beckman Coulter Cytoflex flow cytometer. 123count eBeads counting beads were added to each of the wells for obtaining the absolute cell counts.

The subject of the next experiment is RENCA tumor model. Description: CXCL10 and CD8a levels in RENCA tumor bearing mice. Type of experiment: in vivo, Balb/c mice. The settings on record: 2.5 mg/kg BID peritumorally for 7d. As for the experimental part:
Several mechanism of action related endpoints were also measured in vivo. Balb/c mice were implanted with RENCA cells and treated with candidate lead peptides and control compounds. Dosing occurred during the 1st week only: SG-3-00802 was dosed peritumorally at 2.5 mg/kg BID for 7d, anti-PD-1 was dosed i.p. at 10 mg/kg TIW for a total of 3 doses.

The record followed here is patent US20240317816A1, “PEPTIDES FOR IMMUNOTHERAPY” (Genevive, Inc., priority 2021, published 2024).

As for “MKVRPSVKPMCEKCKIIRRKGRVMVICENPKHKQRQG [SG-3-00802]”, the “rejection of newly implanted tumors” value in the experiment on RENCA cells (peptide alone) and in the experiment on RENCA cells (with anti-PD-1 antibody combinatorial treatment) was “rejected newly implanted tumors” each time. The “percent of mice surviving after re-challenge” value in the experiment on RENCA cells (previously dosed in combination with anti-PD-1) and in the experiment on RENCA cells (previously dosed with peptide alone) was “increased percent of mice surviving” throughout. The “# of animals without tumor progression out of re-challenged animals per group (re-challenge study)” value in the experiment with RENCA cells (re-challenge study) is 2/2. For the same sequence, the “% Agonist Activity” value in the experiment with CCR9 is reported as 2%. Moreover, in the experiment with CCR9, the “% Antagonist Activity” value was −48%. Moreover, the “activity of CXCR3 in presence of ligand (PAM1)” value in experiment [1] (CXCL9 at EC20), in experiment [1] (CXCL10 at EC20) and in experiment [1] (CXCL11 at EC20) was “enhanced activity of CXCR3” in each case. In addition, the “T cell migration to suboptimal level of ligand” value in experiment [2] (CXCL9, 2.5 hours) was “increased migration”; in experiment [2] (CXCL10, 2.5 hours), “increased migration”; in experiment [2] (CXCL11, 2.5 hours) it was “increased migration”. The “CD8a expression in the tumor” value with RENCA tumor model is listed as “increase in CD8a expression”. In addition, in the experiment with RENCA tumor model, the “expression of CXCL10 in the tumor” value is on record as “increased expression of CXCL10 in the tumor”. In the experiment on RENCA tumor model, the “serum levels of CXCL10” value is reported as “increased serum levels of CXCL10”.
